From PubChem BioAssay (NCI)
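Tested at 5 concentrations; 48 h exposure; 96-well plates; endpoints linearly interpolated, else capped at highest concentration. At the TGI there is no net growth.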

Assays:
Experiment in all cases: NCI tumour cell line growth inhibition, 48 h
[1] = test system: RXF-631 renal
[2] = test system: RPMI-8226 leukemia
[3] = test system: A498 renal
[4] = test system: DLD-1 colon
[5] = test system: UACC-257 melanoma
[6] = test system: DMS 273 small cell lung
[7] = test system: SF-539 CNS
[8] = test system: TK-10 renal
[9] = test system: SNB-19 CNS
[10] = test system: NCI-H23 lung
[11] = test system: HCC-2998 colon
[12] = test system: M19-MEL melanoma
[13] = test system: ACHN renal
[14] = test system: NCI-H226 lung
[15] = test system: SW-620 colon
[16] = test system: HT29 colon
[17] = test system: LXFL 529 NSCLC
[18] = test system: SK-MEL-28 melanoma
[19] = test system: 786-0 renal
[20] = test system: HCT-15 colon
[21] = test system: MOLT-4 leukemia
[22] = test system: SR leukemia
[23] = test system: COLO 205 colon
[24] = test system: SF-295 CNS
[25] = test system: M14 melanoma
[26] = test system: HOP-62 NSCLC
[27] = test system: XF 498 CNS
[28] = test system: KM12 colon
[29] = test system: HOP-92 NSCLC
[30] = test system: CCRF-CEM leukemia
[31] = test system: U251 CNS
[32] = test system: SF-268 CNS
[33] = test system: SNB-78 CNS
[34] = test system: HCT-116 colon
[35] = test system: KM20L2 colon
[36] = test system: NCI-H522 lung
[37] = test system: EKVX NSCLC
[38] = test system: NCI-H460 lung
[39] = test system: UACC-62 melanoma
[40] = test system: K-562 leukemia
[41] = test system: SK-MEL-5 melanoma
[42] = test system: HL-60(TB) leukemia
[43] = test system: SN12C renal
[44] = test system: OVCAR-5 ovarian
[45] = test system: SK-MEL-2 melanoma
[46] = test system: CAKI-1 renal
[47] = test system: OVCAR-3 ovarian
[48] = test system: A549 NSCLC
[49] = test system: MALME-3M melanoma
[50] = test system: OVCAR-8 ovarian
[51] = test system: SNB-75 CNS
[52] = test system: HOP-18 NSCLC
[53] = test system: IGROV1 ovarian
[54] = test system: SK-OV-3 ovarian
[55] = test system: OVCAR-4 ovarian
[56] = test system: UO-31 renal
[57] = test system: LOX IMVI melanoma
[58] = test system: DMS 114 small cell lung
[59] = test system: RXF 393 renal

Measured: TGI

CCC(C(=O)c1ccccc1)C(CCCC(=O)Nc1c(C)cccc1C)N=O (stereo not drawn)
not listed: [57] | [58] | [59]
> 100 µM: all other assays above

CCOC(=O)/C(=C\c1ccc[nH]1)C(=O)c1ccccc1
not listed: [3] | [53]
> 100 µM: all other assays above
